Test results published in US9315544B2, “Method of treating eosinophilia by administering an immunomodulating peptide” (National Tsing Hua University, priority 2012, dated 2016).

Experiments:
[1] = test system: inflammatory cell recruitment into the airways; assay: Differential cell counts in bronchoalveolar lavage fluid (BALF); format: in vivo, BALB/c mouse
Text: (§1) FIG. 4 illustrates experimental design. All groups except control group were immunized with mite crude extract allergen on days 1 and 8, then mite crude extract allergen intratracheally on day 15 in all mite treated group, BALB/c mouse were divided into six groups (1) control group (PBS), (2) mites delivered intratracheally (mIT, mite on day 15) alone, (3) CMP intranasal (eIN, CMP on days 1 to 22) alone, (4) preventive-treatment group (eIN+mIT, CMP on days 1 to 14, mite on day 15) (5) therapy-treatment group (mIT+eIN, mite on day 15, CMP on days 15 to 22), and (6) preventive- and therapeutic-treatment group (eIN+mIT+eIN, CMP on days 1 to 22, mite on day 15).
FIG. 7 illustrates inhibitory effect of CMP on cell response in bronchoalveolar lavage fluid (BALF). BALF were collected from all experimental groups of mice. Cell populations were identified on air-dried cytocentrifuged smears after staining with Diff-Quuick stain. Differential cell counts were performed on a minimum of 300 cells to identify macrophages, eosinophils, segment or lymphocytes. Data represent one of three independent experiments. Each result was expressed as the mean±S.D., n=4. ***, P<0.001.
Mice were divided into six groups: 1) control (n=10), 2) mite crude extract allergen delivered intratracheally (mIT) alone (n=10), 3) CMP intranasal (eIN) alone (n=12), 4) preventive-treatment group (eIN+mIT; n=12), 5) therapeutic-treatment group (mIT+eIN; n=12), and 6) preventive- and therapeutic-treatment group (eIN+mIT+eIN; n=18) (FIG. 4). All groups receiving mIT were immunized with mite crude extract allergen on days 1 and 8 and then given mite crude extract allergen intratracheally on day 15. The cIN and eIN+mIT+eIN groups received cIN from days 1 to 22, the cIN+mIT group received eIN from days 1 to 15 (before mIT), and the mIT+eIN group received eIN from days 15 (post-mIT) to 22. All mice were sacrificed on day 23. The animal use protocol was reviewed and approved by Institutional Animal Care and Use Committee (IACUC Approval No: La-95279).
The trachea was exposed and cannulated. Two washings, each consisting of 1.0 ml of phosphate-buffered saline, were introduced into the lungs via the cannula and withdrawn to collect the cells. Bronchoalveolar lavage fluid (BALF) from each wash was placed in polypropylene tubes on ice. The collected BALF was then centrifuged at 300×g for 7 min at 4° C. […] Total cell numbers were counted on a hemocytometer, and 1−5×10^3 cells were spun onto glass microscope slides (cytospin, Shandon Scientific, Cheshire, UK). […] The number of cells recovered was calculated and expressed as absolute cell numbers.
To identify the extent of inflammatory cell recruitment into the airways under allergen challenge circumstance, the amount of inflammatory cell were measured in BALF. […]

mite-specific IgE = assay: Serum mite-specific IgE by ELISA; format: in vivo, BALB/c mouse
Text: as §1
FIG. 8 illustrates inhibitory effect of CMP on serum IgE level. […] Levels of serum Derp-specific IgE were measured by enzyme-linked immunosorbent assay (ELISA). Each result was expressed as the mean±S.D., n=4. *, P<0.05, **, P<0.01. […]
Mite protein (5 μg) was coated on the plated at 4° C. overnight. […] The levels of serum mite-specific IgE were measured by enzyme-linked immunosorbent assay (ELISA).
To further analyze therapeutic effect of CMP on mite sensitization, serum mite-specific IgE levels in mice were measured from all six treatment groups. […]

IL-5 = assay: Cytokine ELISA of lung protein extract (IL-5); format: in vivo, BALB/c mouse; conditions: mIT+eIN, eIN+mIT+eIN and eIN+mIT groups
Text: as §1
FIG. 9 illustrates inhibitory effect of CMP on lung protein extract. Lung protein extracts from different groups of mouse were assayed for the indicated cytokines. Data represent one of three independent experiments. Levels of CCL-11, IL-5, IL-13 and IL-17A/F levels in lung protein extracts from mouse from treatment groups were measured by Enzyme-linked immunosorbent assay (ELISA). Each result was expressed as the mean±S.D., n=4. **, P<0.01, ***, P<0.001. […]
Levels of cytokines from lung protein extract were measured by ELISA. […] The microplates were read at 450 nm with an ELISA reader (Thermo Labsystems, Waltham, Mass., USA). […]

[2] = test system: bronchial epithelial cell; conditions: cited from earlier work

Sequence: NYRWRCKNQN (CMP)
- eosinophil count in BALF compared with mIT group ([1]; eIN+mIT group): lower
- eosinophil count in BALF compared with mIT group ([1]; eIN+mIT+eIN group): lower
- lymphocyte count in BALF compared with mIT group ([1]; eIN+mIT+eIN group): lower
- macrophage count in BALF compared with mIT group ([1]; eIN+mIT+eIN group): lower
- serum mite-specific IgE level compared with mIT group (mite-specific IgE; eIN+mIT+eIN group, day 23): much lower
- serum mite-specific IgE reading of mIT group compared with CMP groups (mite-specific IgE; mIT vs eIN+mIT, mIT+eIN and eIN+mIT+eIN groups, day 18): higher
- IL-5 levels in lung protein extract compared with mIT group (IL-5): lower
- cytotoxic effect on bronchial epithelial cell [2]: no cytotoxic effect
